According to patent US20230321288A1, “RIBOFLAVIN PHOTOCHEMICAL TREATMENT (RPT)-BASED INACTIVATION METHOD OF PATHOGENS IN BIOLOGICAL LIQUID SAMPLE” (INSTITUTE OF BLOOD TRANSFUSION CHINESE ACADEMY OF MEDICAL …, priority 2020, published 2023):

Columns and labels:
[1] = tested on: E. coli; test: RPT-based inactivation of E. coli in plasma, growth detected by Reed-Muench method (Example 1); assay type: cell-based, Escherichia coli; conditions: 50 μM riboflavin, 15 min, 1 W
Description: In this example, the plasma of healthy blood donors containing 50 μM of riboflavin was irradiated with LED lamp beads in a series of wavelength ranges for 15 min at an irradiation intensity of 1 W. The growth of E. coli in the blood products was then detected by a Reed-Muench method.

[2] = tested on: Staphylococcus aureus; test: RPT-based inactivation of Staphylococcus aureus in apheresis platelets, growth detected by Reed-Muench method (Example 2); assay type: cell-based; conditions: 50 μM riboflavin, 30 min
Description: (§1) In this example, the apheresis platelets containing 50 μM of riboflavin were separately irradiated with LED lamp beads with a wavelength of 395 nm±5 nm and fluorescent tubes with a wavelength of 309 nm to 313 nm for 30 min at irradiation intensities of 1 W (395 nm f 5 nm) and 9 W (309 nm to 313 nm), respectively. The growth of Staphylococcus aureus in the blood products was then detected by a Reed-Muench method.

[3] = tested on: apheresis platelets; test: Quality of platelet preservation after RPT (Example 2, Table 1); assay type: cell-based; conditions: for K^+ / MPV / Na^+ / PH: platelets, 50 μM riboflavin, 30 min
Description: as §1
The properties and component contents of the platelet samples in the three groups of experiments were compared, and the results were as follows: […]

Cc1cc2nc3c(=O)[nH]c(=O)nc-3n(C[C@H](O)[C@H](O)[C@H](O)CO)c2cc1C [riboflavin]
pathogen inactivation effect on E. coli ([1]; LED 365 nm ± 5 nm): desirable pathogen inactivation effect | pathogen inactivation effect on E. coli ([1]; LED 395 nm±5 nm): desirable pathogen inactivation effect | inactivation of S. aureus ([2]; 309 nm to 313 nm fluorescent tubes, 9 W): could inactivate the S. aureus | inactivation effect on S. aureus compared with 309 nm to 313 nm fluorescent tubes ([2]; 395 nm±5 nm LED): better | inactivation of S. aureus ([2]; 395 nm±5 nm LED, 1 W): could inactivate the S. aureus | damage to the platelet samples [3]: significantly less damage | K^+ ([3]; 309 nm to 313 nm, 9 W): 3 mmol/L | MPV ([3]; 309 nm to 313 nm, 9 W): 12.1 | Na^+ ([3]; 309 nm to 313 nm, 9 W): 151 mmol/L | PH ([3]; 309 nm to 313 nm, 9 W): 7.26 | K^+ ([3]; 395 nm ± 5 nm, 1 W): 2.7 ± 0^ mmol/L | MPV ([3]; 395 nm ± 5 nm, 1 W): 9.5 ± 0^ | Na^+ ([3]; 395 nm ± 5 nm, 1 W): 153.6 ± 0.49 mmol/L | PH ([3]; 395 nm ± 5 nm, 1 W): 7.45 ± 0.01
